Measurements taken from US11866450B2, “Modulators of Cystic Fibrosis Transmembrane Conductance regulator, pharmaceutical compositions, methods of treatment, and process for making the modulators” (priority 2018, dated 2024).
Like-named read-outs stand apart in the source and are kept apart here.

Tests used:
[1] = snar bond
[2] = snar bond, DMSO
[3] = target: CFTR-mediated chloride transport (Homo sapiens, UniProt P13569); assay type: cell-based; details: enteroid cells incubated with test compound 18-24 hours, acute 10 μM forskolin and 300 nM Compound III; for Max. Activity: % of chloride transport with 3 μM Compound A, 3 μM Compound II and 300 nM acute Compound III triple combination control
Outline: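 Human intestinal enteroid cells incubated with compound 18–24 h at 37° C., then membrane potential dye (FLIPR) read 15 min after chloride-free stimulation with 10 μM forskolin, 100 μM IBMX and 300 nM Compound III. AUC expressed as % of triple-combination control (3 μM Compound A, 3 μM Compound II, 300 nM Compound III).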

Sequence of CFTR-mediated chloride transport (P13569 whole entry, looked up): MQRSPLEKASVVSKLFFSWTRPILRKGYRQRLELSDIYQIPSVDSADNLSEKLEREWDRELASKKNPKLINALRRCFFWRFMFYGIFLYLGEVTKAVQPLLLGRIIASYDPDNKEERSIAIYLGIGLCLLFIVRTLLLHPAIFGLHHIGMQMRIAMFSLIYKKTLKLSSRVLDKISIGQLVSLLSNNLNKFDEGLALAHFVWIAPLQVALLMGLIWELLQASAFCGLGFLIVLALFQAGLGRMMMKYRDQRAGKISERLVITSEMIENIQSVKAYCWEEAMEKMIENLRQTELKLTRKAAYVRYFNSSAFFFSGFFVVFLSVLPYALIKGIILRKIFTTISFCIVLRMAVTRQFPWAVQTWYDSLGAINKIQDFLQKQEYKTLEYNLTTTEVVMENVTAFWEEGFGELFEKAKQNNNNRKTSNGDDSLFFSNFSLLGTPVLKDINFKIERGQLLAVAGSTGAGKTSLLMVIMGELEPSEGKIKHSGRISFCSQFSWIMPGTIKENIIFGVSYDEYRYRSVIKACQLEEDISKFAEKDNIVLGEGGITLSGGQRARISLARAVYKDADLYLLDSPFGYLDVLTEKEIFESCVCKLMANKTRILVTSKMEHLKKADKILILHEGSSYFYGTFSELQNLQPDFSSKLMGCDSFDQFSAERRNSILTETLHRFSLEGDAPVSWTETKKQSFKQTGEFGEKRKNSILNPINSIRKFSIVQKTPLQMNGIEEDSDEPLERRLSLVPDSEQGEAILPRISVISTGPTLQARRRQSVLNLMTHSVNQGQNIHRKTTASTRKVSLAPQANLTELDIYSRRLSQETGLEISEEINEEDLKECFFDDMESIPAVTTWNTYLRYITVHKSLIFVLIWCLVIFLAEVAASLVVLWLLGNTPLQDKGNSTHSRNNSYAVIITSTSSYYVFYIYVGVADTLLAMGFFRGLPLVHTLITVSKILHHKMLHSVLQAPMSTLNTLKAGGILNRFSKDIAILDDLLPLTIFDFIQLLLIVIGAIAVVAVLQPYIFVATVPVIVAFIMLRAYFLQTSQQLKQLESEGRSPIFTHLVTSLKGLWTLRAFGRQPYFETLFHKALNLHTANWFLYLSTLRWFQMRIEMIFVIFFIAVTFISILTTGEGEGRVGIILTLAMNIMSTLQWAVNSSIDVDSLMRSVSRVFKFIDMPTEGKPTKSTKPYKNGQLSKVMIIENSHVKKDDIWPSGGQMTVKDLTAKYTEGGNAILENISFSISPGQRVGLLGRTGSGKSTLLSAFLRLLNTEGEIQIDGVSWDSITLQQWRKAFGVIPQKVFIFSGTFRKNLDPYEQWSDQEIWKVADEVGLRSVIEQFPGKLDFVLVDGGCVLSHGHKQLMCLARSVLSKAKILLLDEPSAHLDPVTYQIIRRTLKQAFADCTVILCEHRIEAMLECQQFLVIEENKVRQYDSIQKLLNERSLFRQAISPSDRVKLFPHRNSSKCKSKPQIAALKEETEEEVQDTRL

| SMILES | EC50 [3] [nM] | Max. Activity [3] | also measured |
| --- | --- | --- | --- |
| [2H]C([2H])(Oc1ccn(-c2ccc3c(n2)N2C[C@@H](CCCNc4cccc(n4)S(=O)(=O)NC3=O)CC2(C)C)n1)C([2H])([2H])C1C2(CC2)C12CC2 |  |  | ring closure, isolated yield ([1]; from [2H]C([2H])(Oc1ccn(-c2ccc(C(=O)NS(=O)(=O)c3cccc(NCCC[C@@H]4CN(C(=O)OC(C)(C)C)C(C)(C)C4)n3)c(Cl)n2)n1)C([2H])([2H])C1C2(CC2)C12CC2, 15-membered ring, K2CO3/3A MS, NMP, 22.2 mM, 155.0 °C, 2 steps): 60% |
| CC1(C)CC2CCCCCNc3cccc(n3)S(=O)(=O)NC(=O)c3ccc(-n4ccc(OCCC5(C(F)(F)F)CC5)n4)nc3N1C2 (single isomer, unassigned; enantiomer 1) |  |  | ring closure, isolated yield ([1]; from CC1(C)CC(CCCCCNc2cccc(S(=O)(=O)NC(=O)c3ccc(-n4ccc(OCCC5(C(F)(F)F)CC5)n4)nc3Cl)n2)CN1, 17-membered ring, K2CO3/CsF/3A MS, DMSO, 35.8 mM, 165.0 °C, 16.0 h): 47% |
| CC1(C)CCC2CCCNc3cccc(n3)S(=O)(=O)NC(=O)c3ccc(-n4ccc(OCC5C6(CC6)C56CC6)n4)nc3N21 (stereo not shown) |  |  | ring closure, isolated yield ([1]; from 2-chloro-N-[[6-[3-(5,5-dimethylpyrrolidin-2-yl)propylamino]-2-pyridyl]sulfonyl]-6-[3-(dispiro[2.0.2.1]heptan-7-ylmethoxy)pyrazol-1-yl]pyridine-3-carboxamide (dihydrochloride salt), 14-membered ring, K2CO3/CsF, NMP, 123.1 mM): 41% |
| CC1(C)C[C@@H]2CCCNc3nc(ccc3OCc3ccccc3)S(=O)(=O)NC(=O)c3ccc(-n4ccc(OCCCC5(C(F)(F)F)CC5)n4)nc3N1C2 |  |  | ring closure, isolated yield ([1]; from CC1(C)CC(CCCNc2nc(S(=O)(=O)NC(=O)c3ccc(-n4ccc(OCCCC5(C(F)(F)F)CC5)n4)nc3Cl)ccc2OCc2ccccc2)CN1, 15-membered ring, K2CO3/CsF, DMSO, 17.7 mM, 160.0 °C, 15.0 h): 82% |
| CN1CCCC2CN(c3nc(-n4ccc(OCCC(C5CC5)C5CC5)n4)ccc3C(=O)NS(=O)(=O)c3cccc1n3)C(C)(C)C2 (stereo not shown) [Compound 189, 8-[3-(3,3-Dicyclopropylpropoxy)-1H-pyrazol-1-yl]-12,12,18-trimethyl-2λ^6-thia-3,9,11,18,23-pentaazatetracyclo[17.3.1.111,14.05,10]tetracosa-1(22),5,7,9,19(23),20-hexaene-2,2,4-trione] | < 1000 | +++ (+++ is >60%) | ring closure, yield after HPLC ([2]; from CN(CCCC1CNC(C)(C)C1)c1cccc(S(=O)(=O)NC(=O)c2ccc(-n3ccc(OCCC(C4CC4)C4CC4)n3)nc2Cl)n1, 15-membered ring, K2CO3/CsF/4A MS, 24.8 mM, 130.0 °C, 2 steps): 60% |
| CC(C)COc1cc(F)cc(-c2ccc3c(n2)N2C[C@@H](CCCn4ccc(n4)S(=O)(=O)NC3=O)CC2(C)C)c1 [Compound 226] | < 1000 | ++ (++ is 30-60%) | ring closure, yield after HPLC ([2]; from CC(C)COc1cc(F)cc(-c2ccc(C(=O)NS(=O)(=O)c3ccn(CCC[C@@H]4CN(C(=O)OC(C)(C)C)C(C)(C)C4)n3)c(Cl)n2)c1, 14-membered ring, K2CO3/CsF/3A MS, 15.0 mM, 150.0 °C, 2 steps): 34% |
| CC1(C)CC2CCCCNc3ccc(nc3)S(=O)(=O)NC(=O)c3ccc(-n4ccc(OCCC5(C(F)(F)F)CC5)n4)nc3N1C2 (stereo not shown) [Compound 123, 12,12-Dimethyl-8-(3-{2-[1-(trifluoromethyl)cyclopropyl]ethoxy}-1H-pyrazol-1-yl)-2λ^6-thia-3,9,11,19,22-pentaazatetracyclo[18.2.2.111,14.05,10]pentacosa-1(22),5(10),6,8,20,23-hexaene-2,2,4-trione] | < 1000 | +++ (+++ is >60%) | ring closure, yield after HPLC ([2]; from CC(C)(C)OC(=O)N1CC(CCCCNc2ccc(S(=O)(=O)NC(=O)c3ccc(-n4ccc(OCCC5(C(F)(F)F)CC5)n4)nc3Cl)nc2)CC1(C)C, 17-membered ring, K2CO3/CsF/3A MS, 110.5 mM, 150.0 °C, 2 steps): 4% |
| CC1(C)CC2CN1c1nc(-n3ccc(OCCC4(C(F)(F)F)CC4)n3)ccc1C(=O)NS(=O)(=O)c1ccn(n1)CCO2 (racemic) [Compound 164, 20,20-Dimethyl-4-(3-{2-[1-(trifluoromethyl)cyclopropyl]ethoxy}-1H-pyrazol-1-yl)-17-oxa-10λ^6-thia-1,3,9,14,22-pentaazatetracyclo[16.2.1.111,14.02,7]docosa-2(7),3,5,11(22),12-pentaene-8,10,10-trione] | 1000 to 3000 | ++ (++ is 30-60%) | ring closure, yield after HPLC ([2]; from CC(C)(C)OC(=O)N1CC(OCCn2ccc(S(=O)(=O)NC(=O)c3ccc(-n4ccc(OCCC5(C(F)(F)F)CC5)n4)nc3Cl)n2)CC1(C)C, 14-membered ring, K2CO3/CsF/3A MS, 62.6 mM, 140.0 °C, 2 steps): 30% |
| CC1(C)CC2CCCNc3cccc(n3)S(=O)(=O)NC(=O)c3ccc(-n4ccc(O)n4)nc3N1C2 (stereo not shown) [Compound 38, 8-(3-hydroxy-1H-pyrazol-1-yl)-12,12-dimethyl-2λ^6-thia-3,9,11,18,23-pentaazatetracyclo[17.3.1.111,14.05,10]tetracosa-1(22),5,7,9,19(23),20-hexaene-2,2,4-trione] | > 3000 | ++ (++ is 30-60%) | ring closure, yield after HPLC ([2]; from CC1(C)CC(CCCNc2cccc(S(=O)(=O)NC(=O)c3ccc(-n4ccc(O)n4)nc3Cl)n2)CN1, 15-membered ring, CsF/K2CO3/3A MS, 39.3 mM, 140.0 °C): 17% |
| CC1(C)CC2CCCNc3cc(ccn3)S(=O)(=O)NC(=O)c3ccc(-n4ccc(OCCC5(C(F)(F)F)CC5)n4)nc3N1C2 (stereo not shown) [Compound 93, 12,12-dimethyl-8-(3-{2-[1-(trifluoromethyl)cyclopropyl]ethoxy}-1H-pyrazol-1-yl)-2λ^6-thia-3,9,11,18,20-pentaazatetracyclo[17.3.1.111,14.05,10]tetracosa-1(22),5,7,9,19(23),20-hexaene-2,2,4-trione] | < 1000 | +++ (+++ is >60%) | ring closure, yield after HPLC ([2]; from CC(C)(C)OC(=O)N1CC(CCCNc2cc(S(=O)(=O)NC(=O)c3ccc(-n4ccc(OCCC5(C(F)(F)F)CC5)n4)nc3Cl)ccn2)CC1(C)C, 15-membered ring, TFA (Boc off), CsF/K2CO3/3A MS, 26.0 mM, 130.0 °C, 2 steps): 30% |
| Cc1c2cnn1CCCC1CN(c3nc(-n4ccc(OCCC5(C(F)(F)F)CC5)n4)ccc3C(=O)NS2(=O)=O)C(C)(C)C1 (stereo not shown) [Compound 18, 20,20,22-trimethyl-4-(3-{2-[1-(trifluoromethyl)cyclopropyl]ethoxy}-1H-pyrazol-1-yl)-10λ^6-thia-1,3,9,13,14-pentaazatetracyclo[16.2.1.111,14.02,7]docosa-2,4,6,11(22),12-pentaene-8,10,10-trione] | < 1000 | ++ (++ is 30-60%) | ring closure, yield after HPLC ([2]; from Cc1c(S(=O)(=O)NC(=O)c2ccc(-n3ccc(OCCC4(C(F)(F)F)CC4)n3)nc2Cl)cnn1CCCC1CNC(C)(C)C1, 14-membered ring, K2CO3/CsF/3A MS, 31.9 mM, 150.0 °C): 7% |
| Cc1nn2cc1S(=O)(=O)NC(=O)c1ccc(-n3ccc(OCCC4(C(F)(F)F)CC4)n3)nc1N1C[C@@H](CCC2)CC1(C)C [Compound 112, (18S)-12,20,20-trimethyl-4-(3-{2-[1-(trifluoromethyl)cyclopropyl]ethoxy}-1H-pyrazol-1-yl)-10λ^6-thia-1,3,9,13,14-pentaazatetracyclo[16.2.1.111,14.02,7]docosa-2,4,6,11(22),12-pentaene-8,10,10-trione] | < 1000 | ++ (++ is 30-60%) | ring closure, yield after HPLC ([2]; from Cc1nn(CCC[C@@H]2CNC(C)(C)C2)cc1S(=O)(=O)NC(=O)c1ccc(-n2ccc(OCCC3(C(F)(F)F)CC3)n2)nc1Cl, 14-membered ring, K2CO3/CsF, 37.8 mM, 160.0 °C): 26% |
| CC1(C)C[C@@H]2CCCNc3cccc(n3)S(=O)(=O)NC(=O)c3ccc(-n4ccc(OCC(C)(C)C(F)(F)F)n4)nc3N1C2 [Compound 208, (14S)-12,12-dimethyl-8-[3-(3,3,3-trifluoro-2,2-dimethylpropoxy)-1H-pyrazol-1-yl]-2λ^6-thia-3,9,11,18,23-pentaazatetracyclo[17.3.1.111,14.05,10]tetracosa-1(22),5,7,9,19(23),20-hexaene-2,2,4-trione] | < 1000 | +++ (+++ is >60%) | ring closure, yield after HPLC ([2]; from CC1(C)C[C@H](CCCNc2cccc(S(=O)(=O)NC(=O)c3ccc(-n4ccc(OCC(C)(C)C(F)(F)F)n4)nc3Cl)n2)CN1, 15-membered ring, K2CO3/CsF/3A MS, 57.7 mM, 150.0 °C): 51% |
| CC1(C)C[C@@H]2CCCNc3cccc(n3)S(=O)(=O)NC(=O)c3ccc(-n4ccc(O)n4)nc3N1C2 [Compound 256, (14S)-8-(3-hydroxy-1H-pyrazol-1-yl)-12,12-dimethyl-2λ^6-thia-3,9,11,18,23-pentaazatetracyclo[17.3.1.111,14.05,10]tetracosa-1(22),5,7,9,19(23),20-hexaene-2,2,4-trione] | > 3000 | ++ (++ is 30-60%) | ring closure, yield after HPLC ([2]; from CC(C)(C)OC(=O)N1C[C@@H](CCCNc2cccc(S(=O)(=O)NC(=O)c3ccc(-n4ccc(OCC5C(C)(C)C5(C)C)n4)nc3Cl)n2)CC1(C)C, 15-membered ring, TFA/DCM, then K2CO3/CsF/3A MS, 23.1 mM, 150.0 °C, 2 steps): 17% |
| [2H]C([2H])(COc1ccn(-c2ccc3c(n2)N2C[C@@H](CCCNc4cccc(n4)S(=O)(=O)NC3=O)CC2(C)C)n1)CC1(C(F)(F)F)CC1 [Compound 270, (14S)-12,12-Dimethyl-8-(3-{3-[1-(trifluoromethyl)cyclopropyl]-2,2-dideuterio-propoxy}-1H-pyrazol-1-yl)-2λ^6-thia-3,9,11,18,23-pentaazatetracyclo[17.3.1.111,14.05,10]tetracosa-1(23),5(10),6,8,19,21-hexaene-2,2,4-trione] | < 1000 | +++ (+++ is >60%) | ring closure, yield after HPLC ([2]; from [2H]C([2H])(COc1ccn(-c2ccc(C(=O)NS(=O)(=O)c3cccc(NCCC[C@@H]4CN(C(=O)OC(C)(C)C)C(C)(C)C4)n3)c(Cl)n2)n1)CC1(C(F)(F)F)CC1, 15-membered ring, TFA/DCM, then K2CO3/CsF/3A MS, 27.0 mM, 150.0 °C, 2 steps): 44% |
